# Experimental data: patent US11926860B2, “Method of screening inhibitor of caspase activity by lipopolysaccharide” (KOREA INSTITUTE OF SCIENCE AND TECHNOLOGY, priority 2021, dated 2024)
# T1: binding of CARD and LPS (Homo sapiens, UniProt P49662, M1C)
# T1 construct: three types of cysteine-inserted CARD(1-80) variants (Cys-His-CARD, His-Cys-CARD (M1C-CARD), and His-CARD-Cys); His6 (N); made in house; host or cells: E. coli CLEARCOLI BL21(DE3)
# T1 sequence (P49662 1-80 M1C): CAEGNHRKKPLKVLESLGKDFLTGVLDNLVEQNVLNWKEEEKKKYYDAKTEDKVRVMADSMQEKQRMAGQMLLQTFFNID
# Tests used:
# [1] = target: T1, binding of CARD and LPS; test: FP competition assay of hit compounds; conditions: compound 50 μM to 0.022 μM, 6.4 μM LPS-Ra, 50 nM tracer, buffer C, 37° C. 1 hour
# Description: In detail, the FP competition assay was performed by mixing 50 nM of tracer, 6.4 μM of LPS-Ra, and 3-fold serially diluted hit compound (50 μM to 0.022862 μM) in buffer C. The mixture was incubated at 37° C. for 1 hour before measurement. FP values were expressed as a function of compound concentrations, and IC50 values were obtained from a sigmoidal curve fit, as analyzed in GRAPHPAD PRISM 8.
# [2] = FP binding assay of ALEXA FLUOR 488-CARD and LPS; conditions: for effect of additive on binding of CARD and LPS: buffer C with 0.1 mg/mL BSA, 0.01% NP-40, or 1 mM MC (MgCl2+CaCl2), 37° C. 1 hour
# Description: Fluorescence polarization (FP) was measured with an APPLISKAN microplate reader (ThermoFisher) using 485 nm excitation and 535 nm emission filters. The FP value was calculated according to the following equation: FP (mP)=1000×(Is−G×Ip)/(Is+G×Ip). In the equation, Is represents a parallel (equivalent) emission intensity, Ip represents a perpendicular emission intensity, and G represents a lattice coefficient 0.877.
# FP binding assay was performed by adding 200 μL of a reaction mixture to each well of a black 96-well plate (SPL Life Sciences). The reaction mixture includes 50 nM ALEXA FLUOR 488-CARD (tracer) with increasing concentrations of LPS-Ra (in the range of 0 μM to 12.8 μM, a molecular weight of LPS-Ra is assumed to be 3,835 g/mole, Sigma-Aldrich) in a buffer C or an indicated buffer. The reaction mixture was incubated at 37° C. for 30 minutes to 4 hours before reaction. FP values are expressed as a function of LPS-Ra concentration. FP binding curves of His-Cys-CARD (ALEXA FLUOR 488-CARD) or ALEXA FLUOR 488 alone (dye) with respect to the concentrations of LPS are shown in FIG. 2E.
# Apparent equilibrium dissociation constants (Kd^app) were calculated from the nonlinear regression curve fit, as analyzed in GRAPHPAD PRISM 8 from the FP binding curves.
# An FP binding curve from FP values measured with buffer C (50 mM Tris-HCl pH 7.0, 150 mM NaCl) supplemented with additives such as 0.1 mg/mL BSA, 0.01% NP-40, or 1 mM MC (MgCl2+CaCl2) is shown in FIG. 3A. An FP binding curve from FP values measured by incubating ALEXA FLOUR 488-CARD serially diluted with buffer C for 0.5 hours to 4 hours is shown in FIG. 3B (grey area: range of 20 nM to 50 nM). An FP binding curve from FP values measured by incubating different concentrations of LPS-Ra in buffer C for 0.5 hours to 4 hours is shown in FIG. 3D. An FP binding curve from FP values measured with buffer C supplemented with different concentrations of DMSO is shown in FIG. 3E. In addition, LPS-Ra concentration-dependent Z′ factor was evaluated in buffer C supplemented with 0% to 10% DMSO. […]
# [3] = Surface plasmon resonance (SPR) of Casp-4 constructs on immobilized LPS; format: binding, E. coli; conditions: for Kd: 25° C., NH-LPS O55:B5 on CM5 chip, HBS-E, read-out: dissociation constant
# Description: In addition, the binding affinity between Casp-4 and LPS was determined by a surface plasmon resonance (SPR) experiment. The SPR experiment was performed at 25° C. using a BIACORE T200 (Cytiva). A filtered and degassed running buffer (HBS-E) was prepared prior to use. Amine-derived LPS O55:B5 (NH-LPS, Sigma-Aldrich) was prepared by a method described in P. T. Wong et al., J Mater Chem B, 2015, 3, 1149-1156, herein incorporated by reference. NH-LPS was immobilized on a CM5 sensor chip (Cytiva) using an amine coupling method (480 RU), and blocked with 1 M ethanolamine (pH 8.5). Purified proteins of the indicated concentration were injected, and the resulting sensorgrams were analyzed using a BIACORE T200 Evaluation software.
# [4] = Tryptophan fluorescence spectrometry of Casp-4 constructs binding to LPS; conditions: for Kd: 1 μM protein, LPS-Ra 0 μM to 50 μM, HBS-E buffer, 37° C. 30 minutes, fluorescence intensity at 334 nm, read-out: apparent equilibrium dissociation constant (Kd^app)
# Description: Apparent dissociation constants were measured by tryptophan fluorescence spectrometry. […] Apparent dissociation constant values were calculated by analyzing the fluorescence emission spectra.
# Fluorescence spectra were obtained with a FluoroMate FS-2 fluorescence spectrophotometer (Sinco) equipped with a quartz cuvette with a 5 mm path length. 1 μM of the recombinant protein was mixed with increasing concentrations of LPS-Ra (in the range of 0 μM to 50 μM) in an HBS-E buffer (10 mM HEPES pH 7.5, 150 mM NaCl, 3 mM EDTA), and incubated at 37° C. for 30 minutes. The sample was excited at 280 nm, and emission spectra at 300 nm to 500 nm were recorded with an excitation/emission slit width of 2.5/5 nm, respectively. The fluorescence intensity of the sample was corrected by subtracting the background intensity of LPS alone. A difference in the fluorescence intensity at 334 nm was expressed as a function of LPS-Ra concentration, and the apparent equilibrium dissociation constant (Kd^app) was calculated from the nonlinear regression curve fit, as analyzed in GRAPHPAD PRISM 8. Graphs showing the emission spectra of the tryptophan residue in full-length C258A-Casp-4, CARD, and ΔCARD-C258A-Casp-4 in LPS-Ra (0 μM to 50 μM) are shown in FIG. 1B.
molecule,measurement,setting,value
"CN1CCN(c2ccc(C(=O)Nc3n[nH]c4ccc(Cc5cc(F)cc(F)c5)cc34)c(NC3CCOCC3)c2)CC1 [C-19, Entrectinib]","IC50 (FP signal decrease, concentration-dependent)",[1],μM level
"O=C1c2c(O)ccc(O)c2C(=O)c2c(NCCNCCO)ccc(NCCNCCO)c21 [C-6, Mitoxantrone]","IC50 (FP signal decrease, concentration-dependent)",[1],μM level
"Cc1cc(Nc2ncc(Cl)c(Nc3ccccc3S(=O)(=O)C(C)C)n2)c(OC(C)C)cc1C1CCNCC1 [C-16, Ceritinib]","IC50 (FP signal decrease, concentration-dependent)",[1],μM level
bovine serum albumin [BSA],effect of additive on binding of CARD and LPS,[2],inhibited
"CN1CCN(c2nc(C3=C(c4c[nH]c5ccccc45)C(=O)NC3=O)c3ccccc3n2)CC1 [C-15, Sotrastaurin]","IC50 (FP signal decrease, concentration-dependent)",[1],μM level
"CC1=NN(c2ccc(C)c(C)c2)C(=O)/C1=N\Nc1cccc(-c2cccc(C(=O)O)c2)c1O [C-11, Eltrombopag Olamine]","IC50 (FP signal decrease, concentration-dependent)",[1],μM level
NP-40,effect of additive on binding of CARD and LPS,[2],inhibited
"CCOc1ccc2nc3cc(N)ccc3c(N)c2c1 [C-8, Ethacridine lactate]","IC50 (FP signal decrease, concentration-dependent)",[1],μM level
"Cn1cc(C2=C(c3cn(C4CCN(Cc5ccccn5)CC4)c4ccccc34)C(=O)NC2=O)c2ccccc21 [C-13, Enzastaurin]","IC50 (FP signal decrease, concentration-dependent)",[1],μM level
"CN(C)c1ccc(C(=C2C=CC(=[N+](C)C)C=C2)c2ccc(N(C)C)cc2)cc1 [C-5, Crystal violet]","IC50 (FP signal decrease, concentration-dependent)",[1],μM level
"CARD: caspase activation and recruitment domain of Casp-4, residues 1-80, His6 tag at the N-terminus (protein, N-terminal His6 tag; Caspase-4 CARD polypeptide) MAEGNHRKKPLKVLESLGKDFLTGVLDNLVEQNVLNWKEEEKKKYYDAKTEDKVRVMADSMQEKQRMAGQMLLQTFFNID",Kd,[3],2100 nM
same,Kd,[4],6500 ± 800 nM
"ALEXA FLOUR 488-CARD: ALEXA FLUOR 488-labeled His-Cys-CARD (M1C-CARD), tracer for FP assays (conjugate, UniProt P49662 1-80, looked up, fragment M1C, CARD Alexa Fluor 488 label; His tag, ALEXA FLUOR 488-labeled His-Cys-CARD (M1C-CARD), tracer for FP assays) CAEGNHRKKPLKVLESLGKDFLTGVLDNLVEQNVLNWKEEEKKKYYDAKTEDKVRVMADSMQEKQRMAGQMLLQTFFNID",Kd,"[2]; 50 nM ALEXA FLOUR 488-CARD, LPS-Ra 0 μM to 12.8 μM, buffer C, 37° C., read-out: Kd^app",2200 ± 200 nM
"ΔCARD-C258A-Casp-4: CARD truncated Casp-4 (81-377, C258A modification) (protein, UniProt P49662 81-377, looked up, fragment C258A) QISPNKKAHPNMEAGPPESGESTDALKLCPHEEFLRLCKERAEEIYPIKERNNRTRLALIICNTEFDHLPPRNGADFDITGMKELLEGLDYSVDVEENLTARDMESALRAFATRPEHKSSDSTFLVLMSHGILEGICGTVHDEKKPDVLLYDTIFQIFNNRNCLSLKDKPKVIIVQAARGANRGELWVRDSPASLEVASSQSSENLEEDAVYKTHVEKDFIAFCSSTPHNVSWRDSTMGSIFITQLITCFQKYSWCCHLEEVFRKVQQSFETPRAKAQMPTIERLSMTRYFYLFPGN",binding to LPS,[3]; FIG. 1C,not identified
same,binding to LPS,"[4]; tryptophan fluorescence, FIG. 1B",not identified
"C258A-Casp-4: Catalytically inactive full-length Casp-4 (1-377, C258A modification) (protein, UniProt P49662 1-377, looked up, variant C258A, full-length) MAEGNHRKKPLKVLESLGKDFLTGVLDNLVEQNVLNWKEEEKKKYYDAKTEDKVRVMADSMQEKQRMAGQMLLQTFFNIDQISPNKKAHPNMEAGPPESGESTDALKLCPHEEFLRLCKERAEEIYPIKERNNRTRLALIICNTEFDHLPPRNGADFDITGMKELLEGLDYSVDVEENLTARDMESALRAFATRPEHKSSDSTFLVLMSHGILEGICGTVHDEKKPDVLLYDTIFQIFNNRNCLSLKDKPKVIIVQAARGANRGELWVRDSPASLEVASSQSSENLEEDAVYKTHVEKDFIAFCSSTPHNVSWRDSTMGSIFITQLITCFQKYSWCCHLEEVFRKVQQSFETPRAKAQMPTIERLSMTRYFYLFPGN",Kd,[3],2400 nM
same,Kd,[4],5300 ± 500 nM
